The values that follow come from ChEMBL document CHEMBL1127994, “Substrate specificity of immobilized penicillin-G acylase towards penicillin and cephalosporin derivatives was studied. The phenylacetyl moiety can be altered at the -position with several small substituents. Depending on polarity and size of the substituent, enzyme activity decreases or increases. …” (Bioorg Med Chem Lett, 1994).

Each structure is given as a SMILES string.

One may read the half-life as the time in which the quantity being followed falls by half. Lower therefore signals rapid decline.

Tested on in one data set: not listed separately
Nature of the data set: (§1) Hydrolysis half life using immobilized penicillin-G acylase.
Details: not given
The data set is classed as ADME.
`CC1=C(C(=O)O)N2C(=O)[C@@H](NC(=O)Cc3ccccc3)[C@H]2[S+]([O-])C1` (stereo in doubt; form 1) displayed a T1/2 of 200 min.
Still for that read-out and setting: in the case of `CC1=C(C(=O)O)N2C(=O)[C@@H](NC(=O)Cc3ccccc3)[C@H]2[S+]([O-])C1` (stereo in doubt; form 2) it was 33 min.

In the next data set the test system is penicillin-G acylase. The data set is described as §1. Format: ADME. Conditions: immobilized penicillin-G acylase.
The compound `CC1=C(C(=O)O)N2C(=O)[C@@H](NC(=O)C(Br)c3ccccc3)[C@H]2[S+]([O-])C1` (some centres not stated) gave a half-life of 370 min.
In turn, `CC1=C(C(=O)O)N2C(=O)[C@@H](NC(=O)c3ccccc3)[C@H]2SC1` returned a half-life of more than 10000 min.
Still for that read-out and setting: in the case of `CCC(C(=O)N[C@@H]1C(=O)N2[C@@H]1SC(C)(C)[C@@H]2C(=O)O)c1ccccc1` (some centres not stated) it was 3400 min; in that of `CC1=C(C(=O)O)N2C(=O)[C@@H](NC(=O)Cc3ccsc3)[C@H]2SC1`, 65 min; in that of `CC1(C)S[C@@H]2[C@H](NC(=O)Cc3ccccc3)C(=O)N2[C@H]1C(=O)O` [PENICILLIN G], 25 min.
The same measure, in the same setting: then `CC1(C)S[C@@H]2[C@H](NC(=O)[C@H](N)c3ccccc3)C(=O)N2[C@H]1C(=O)O` [AMPICILLIN], with 5 min.
`Cn1nnnc1SCC1=C(C(=O)O)N2C(=O)[C@@H](NC(=O)Cc3ccccc3)[C@H]2SC1` had a half-life of 50 min.
`C/C=C/C1=C(C(=O)O)N2C(=O)[C@@H](NC(=O)Cc3ccccc3)[C@H]2SC1`: the half-life was 50 min.
Still for that read-out and setting: in the case of `CC1=C(C(=O)O)N2C(=O)[C@@H](NC(=O)COc3ccccc3)[C@H]2[S+]([O-])C1` (some centres not stated) it was 1420 min; in that of `CC1=C(C(=O)O)N2C(=O)[C@@H](NC(=O)Cc3ccccc3)[C@H]2SC1`, 45 min; in that of `CC1=C(C(=O)O)N2C(=O)[C@@H](NC=O)[C@H]2[S+]([O-])C1` (some centres not stated), more than 10000 min.
Still for that read-out and setting: then `CC1(C)S[C@@H]2[C@H](NC(=O)C(Br)c3ccccc3)C(=O)N2[C@H]1C(=O)O` (some centres not stated), with 80 min; and `CC1=C(C(=O)O)N2C(=O)[C@@H](NC(=O)C(O)c3ccccc3)[C@H]2SC1` (some centres not stated), with 5 min; and `C=CC1=C(C(=O)O)N2C(=O)[C@@H](NC(=O)Cc3ccccc3)[C@H]2SC1`, with 55 min.
Same read-out and setting: in the case of `O=C(Cc1ccccc1)N[C@@H]1C(=O)N2C(C(=O)O)=CCS[C@H]12` it was 25 min; in that of `CC1(C)[C@H](C(=O)O)N2C(=O)[C@@H](NC(=O)Cc3ccccc3)[C@H]2[S+]1[O-]` (some centres not stated), 90 min; in that of `CC1(C)[C@H](C(=O)O)N2C(=O)[C@@H](NC(=O)Cc3ccccc3)[C@H]2S1(=O)=O`, 50 min.
In turn, `CC1(C)S[C@@H]2[C@H](NC(=O)C(Cc3ccccc3)c3ccccc3)C(=O)N2[C@H]1C(=O)O` (some centres not stated) registered a half-life of 7000 min.
Same read-out and setting: in the case of `CC1(C)S[C@@H]2[C@H](NC(=O)[C@H](N)c3ccc(O)cc3)C(=O)N2[C@H]1C(=O)O` [AMOXICILLIN] it was 12 min.
The compound `CC1=C(C(=O)O)N2C(=O)[C@@H](NC(=O)COc3ccccc3)[C@H]2SC1` yielded a half-life of 1280 min.
